{
  "source": "patent US20090118263A1",
  "about": "“Novel Adenine Compound” (priority 2005, published 2009)",
  "note": "pEC50: −log10 of the molar value.",
  "data": [
    {"molecular_target": "T1, human TLR7 (Homo sapiens, UniProt Q9NYK1)", "T1 construct": "expressed in transfected cells; host or cells: HEK293 (hTLR7/seap-293), stably transfected with the TLR7 plasmid and the NF-kB-SEAP reporter plasmid", "T1 sequence (Q9NYK1 27-1049)": "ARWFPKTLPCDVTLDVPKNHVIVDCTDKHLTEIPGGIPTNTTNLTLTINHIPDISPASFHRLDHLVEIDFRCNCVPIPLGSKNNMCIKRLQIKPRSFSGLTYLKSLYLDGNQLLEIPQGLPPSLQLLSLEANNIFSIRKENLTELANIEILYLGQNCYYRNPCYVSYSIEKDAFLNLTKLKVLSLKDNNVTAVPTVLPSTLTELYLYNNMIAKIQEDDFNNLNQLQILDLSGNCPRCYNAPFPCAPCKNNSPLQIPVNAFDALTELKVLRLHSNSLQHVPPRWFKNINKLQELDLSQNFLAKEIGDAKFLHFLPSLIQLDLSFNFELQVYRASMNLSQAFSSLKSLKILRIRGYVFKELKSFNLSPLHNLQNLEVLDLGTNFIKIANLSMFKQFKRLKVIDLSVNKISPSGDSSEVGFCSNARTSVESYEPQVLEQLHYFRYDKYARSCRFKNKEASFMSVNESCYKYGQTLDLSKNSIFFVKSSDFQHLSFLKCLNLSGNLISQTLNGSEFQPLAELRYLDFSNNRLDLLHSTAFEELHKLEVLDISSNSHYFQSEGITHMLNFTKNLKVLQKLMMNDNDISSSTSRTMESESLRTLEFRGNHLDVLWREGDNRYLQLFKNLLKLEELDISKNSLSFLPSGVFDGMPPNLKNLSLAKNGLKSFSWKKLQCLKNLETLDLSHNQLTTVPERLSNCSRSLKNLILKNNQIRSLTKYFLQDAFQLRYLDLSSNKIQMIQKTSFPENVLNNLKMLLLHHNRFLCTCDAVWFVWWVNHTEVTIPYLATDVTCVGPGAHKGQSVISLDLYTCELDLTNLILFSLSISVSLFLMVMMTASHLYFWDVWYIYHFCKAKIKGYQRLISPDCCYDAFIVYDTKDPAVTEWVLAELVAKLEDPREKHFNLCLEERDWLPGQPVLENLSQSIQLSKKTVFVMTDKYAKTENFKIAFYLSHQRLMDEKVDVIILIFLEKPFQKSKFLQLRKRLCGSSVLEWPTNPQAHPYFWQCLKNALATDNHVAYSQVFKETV", "test": "Human TLR7 reporter assay (NF-kB-SEAP in HEK293 cells)", "type": "cell-based", "conditions": "HEK293 cells stably carrying human TLR7 plasmid and NF-kB-SEAP reporter plasmid; 20 hours culture; 1 nM-10 μM; absorbance 405 nm; read-out: Human TLR7 binding activity (EC50)", "description": "Human TLR7 Reporter Assay\nHEK293 cells in which human TLR7 or rat TLR7 plasmid and reporter plasmid (NF-kB-SEAP) are stably introduced are dispersed in DMEM broth (10% FBS, 1% NEAA, 10 ug/mL blastocidin S HCl, 100 ug/mL Zeocin), and were seeded to 96 well plate per 90 μl/well (hTLR7/seap-293:20000 cells/well, rTLR7/seap-293:25000 cells/well).\nTest compound (DMSO stock solution (2 μl) was diluted with the broth (200 μl) by 100 times) was added to the seeded cells to a 96 well plate (10 μl/well) (final concentration; 1 nM-10 μM, common ratio). After stirring by tapping side of the plate, the cells were cultured in a CO2 incubator for 20 hours. A substrate (50 μl/well) for reporter assay (substrate for SEAP, pNPP) was added to cells stimulated by test sample. Ten minutes after adding the substrate, the reaction quenching solution (4N NaOH) was added by 50 μl/well to cease enzymatic reaction. Sealing a top seal A on the plate, the absorbance was measured by a micro plate reader (405 nm).", "values": [
      {"smiles": "CCCCOc1nc(N)c2[nH]c(=O)n(Cc3ccc(CN(C)CCOc4cc(CC(=O)OC)ccc4OC)cc3)c2n1", "note": "[Example 11, 2-Butoxy-7,8-dihydro-9-[4-(N-{2-[2-methoxy-5-(methoxycarbonylmethyl)phenoxy]ethyl}-N-methylaminomethyl)benzyl]-8-oxoadenine]", "pEC50": 7.68},
      {"smiles": "CCCCOc1nc(N)c2[nH]c(=O)n(Cc3ccc(CN(CCCN4CCOCC4)Cc4cccc(CC(=O)O)c4)cc3)c2n1", "note": "[Example 8, 2-Butoxy-7,8-dihydro-9-(4-{N-[3-(hydroxycarbonylmethyl)benzyl]-N-(3-morpholin-4-ylpropyl)aminomethyl}benzyl)-8-oxoadenine]", "pEC50": 6.60},
      {"smiles": "CCCCOc1nc(N)c2[nH]c(=O)n(Cc3ccc(OCCCNCc4cccc(CC(=O)OC)c4)cc3)c2n1", "note": "[Example 3, 2-Butoxy-7,8-dihydro-9-([3-{N-[3-(methoxycarbonylmethyl)benzyl]amino}propoxy]benzyl)-8-oxoadenine]", "pEC50": 7.69},
      {"smiles": "CCCCOc1nc(N)c2[nH]c(=O)n(Cc3ccc(OCCCCN(C)Cc4cccc(CC(=O)OC)c4)nc3)c2n1", "note": "[Example 15, 2-Butoxy-7,8-dihydro-9-[6-(4-[{N-methyl-N-[3-(methoxycarbonylmethyl)benzyl]}amino]butoxy)pyridin-3-ylmethyl]-8-oxoadenine]", "pEC50": 8.03},
      {"smiles": "CCCCOc1nc(N)c2[nH]c(=O)n(Cc3ccc(OCCCCN(C)Cc4cccc(CC(=O)O)c4)nc3)c2n1", "note": "[Example 16, 2-Butoxy-7,8-dihydro-9-[6-(4-[{N-[3-(carboxymethyl)benzyl]-N-methyl}amino]butoxy)pyridin-3-ylmethyl]-8-oxoadenine]", "pEC50": 7.53},
      {"smiles": "CCCCOc1nc(N)c2[nH]c(=O)n(Cc3ccc(CN(CCCO)Cc4cccc(CC(=O)OC)c4)cc3)c2n1", "note": "[Example 5, 2-Butoxy-7,8-dihydro-9-(4-{N-(3-hydroxypropyl)-N-[3-(methoxycarbonylmethyl)benzyl]aminomethyl}benzyl)-8-oxoadenine]", "pEC50": 7.39},
      {"smiles": "CCCCOc1nc(N)c2[nH]c(=O)n(Cc3ccc(OCCCCNCc4cccc(CC(=O)OC)c4)nc3)c2n1", "note": "[Example 12, 2-Butoxy-7,8-dihydro-9-{6-[4-(3-methoxycarbonylmethylbenzyl)aminobutoxy]pyridin-3-ylmethyl}-8-oxoadenine]", "pEC50": 8.04},
      {"smiles": "CCCCOc1nc(N)c2[nH]c(=O)n(Cc3ccc(CN(C)CCOc4cccc(CC(=O)OC)c4)cc3)c2n1", "note": "[Example 9, 2-Butoxy-7,8-dihydro-9-[4-(N-{2-[3-(methoxycarbonylmethyl)phenoxy]ethyl}-N-methylaminomethyl)benzyl]-8-oxoadenine]", "pEC50": 7.55},
      {"smiles": "COCCOc1nc(N)c2[nH]c(=O)n(Cc3ccc(CN(C)CCOc4cccc(CC(=O)OC)c4)cc3)c2n1", "note": "[Example 19, 7,8-Dihydro-9-[4-{N-[2-(3-methoxycarbonylmethylphenyl-1-yl)oxyethyl]-N-methylamino}methylbenzyl]-2-(2-methoxyethoxy)-8-oxoadenine]", "pEC50": 7.29},
      {"smiles": "CCCCOc1nc(N)c2[nH]c(=O)n(Cc3ccc(CN(CCCN4CCOCC4)Cc4cccc(CC(=O)OC)c4)cc3)c2n1", "note": "[Example 7, 2-Butoxy-7,8-dihydro-9-(4-{N-[3-(methoxycarbonylmethyl)benzyl]-N-(3-morpholin-4-ylpropyl)aminomethyl}benzyl)-8-oxoadenine]", "pEC50": 7.62},
      {"smiles": "CCCCOc1nc(N)c2[nH]c(=O)n(Cc3ccc(OCCCN(C)Cc4cccc(CC(=O)OC)c4)cc3)c2n1", "note": "[Example 1, 2-Butoxy-7,8-dihydro-9-[(3-[{N-methyl-N-[3-(methoxycarbonylmethyl)benzyl]}amino]propoxy)benzyl]-8-oxoadenine]", "pEC50": 7.59},
      {"smiles": "CCCCOc1nc(N)c2[nH]c(=O)n(Cc3ccc(OCCCCN(CCCN4CCOCC4)Cc4cccc(CC(=O)OC)c4)nc3)c2n1", "note": "[Example 17, 2-Butoxy-7,8-dihydro-9-(6-[4-{[N-(3-methoxycarbonylmethylbenzyl)-N-(3-morpholinopropyl)]amino}butoxy]pyridin-3-ylmethyl)-8-oxoadenine]", "pEC50": 7.68}
    ]}
  ]
}
